Relative viability data for five cell lines are collected here from the supplement of paper PMC10307832.

Holding throughout (assay): relative viability (nuclei count vs DMSO), 5 days (fraction); higher = more cells survive
Compound in the assay “AT-7519 + Foretinib”: O=C(NC1CCNCC1)c1n[nH]cc1NC(=O)c1c(Cl)cccc1Cl [AT-7519] + COc1cc2c(Oc3ccc(NC(=O)C4(C(=O)Nc5ccc(F)cc5)CC4)cc3F)ccnc2cc1OCCCN1CCOCC1 [Foretinib] (partner 0.25 µM)
The gist of the method: (§1)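 A single step with final 0.05% Triton X-100, 1% formaldehyde and 1 ug/ml Hoechst fixed the cells and stained nuclei 5 days after treatment. Lung cancer cell lines in 1536-well plates had been treated by pin tool the day after seeding with one drug alone or a fixed anchor-drug dose plus five library-drug doses (not always all listed) in √10 steps, and nuclei were counted on 4× images. Relative viability is the ratio of nuclei in treated wells to nuclei in vehicle wells, taken as the median of duplicate plates.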

Compound in the assay “AT-7519 + Crizotinib”: O=C(NC1CCNCC1)c1n[nH]cc1NC(=O)c1c(Cl)cccc1Cl [AT-7519] + C[C@@H](Oc1cc(-c2cnn(C3CCNCC3)c2)cnc1N)c1c(Cl)ccc(F)c1Cl [Crizotinib] (partner 1 µM)
The gist of the method:
as §1

Compound in assay [1]: C1=CC2=C(C=C(C(=C2N=C1)O)N=NC3=CC4=C(C=C3)C=C(C=C4)S(=O)(=O)O)S(=O)(=O)O + O=C(c1cc(Cc2n[nH]c(=O)c3ccccc23)ccc1F)N1CCN(C(=O)C2CC2)CC1 [Olaparib] (partner 8 µM)
The gist of the method: as §1

Compound in assay [2]: C1=CC2=C(C=C(C(=C2N=C1)O)N=NC3=CC4=C(C=C3)C=C(C=C4)S(=O)(=O)O)S(=O)(=O)O + NC(=O)Nc1cc(-c2cccc(F)c2)sc1C(=O)N[C@H]1CCCNC1 [AZD7762] (partner 0.2 µM)
The gist of the method:
as §1

As for NCI-H1437, the relative viability with AT-7519 + Foretinib (first compound 0.01 µM) was found to be 1.3; with AT-7519 + Foretinib (first compound 0.03162 µM) it was 1.32; with AT-7519 + Foretinib (first compound 0.3162 µM), 1.24; with AT-7519 + Foretinib (first compound 1 µM) it was 1.01; in the assay with AT-7519 + Crizotinib (first compound 0.01 µM), 0.93; with AT-7519 + Crizotinib (first compound 0.03162 µM), 1.06. For the same cell line, the relative viability with AT-7519 + Crizotinib (first compound 0.3162 µM) amounted to 0.9; with AT-7519 + Crizotinib (first compound 1 µM), 0.361; in assay [1] (first compound 0.08 µM), 0.617; in assay [1] (first compound 0.253 µM), 0.611; in assay [1] (first compound 0.8 µM), 0.655; in assay [1] (first compound 2.53 µM), 0.638. Besides, the relative viability in assay [1] (first compound 8 µM) amounted to 0.613; in assay [2] (first compound 0.08 µM) it was 1.11; in assay [2] (first compound 0.253 µM), 1.11; in assay [2] (first compound 0.8 µM), 1.1; in assay [2] (first compound 2.53 µM), 1.2; in assay [2] (first compound 8 µM) it was 1.08.

In the case of NCI-H1651, the relative viability with AT-7519 + Foretinib (first compound 0.01 µM) was 0.855; with AT-7519 + Foretinib (first compound 0.03162 µM), 0.786; in the assay with AT-7519 + Foretinib (first compound 0.3162 µM) it was 0.803; with AT-7519 + Foretinib (first compound 1 µM) it was 0.683; with AT-7519 + Crizotinib (first compound 0.01 µM), 0.858; in the assay with AT-7519 + Crizotinib (first compound 0.03162 µM), 0.846. For the same cell line, the relative viability amounted to 0.909 with AT-7519 + Crizotinib (first compound 0.3162 µM); 0.847 in the assay with AT-7519 + Crizotinib (first compound 1 µM); 0.187 in assay [1] (first compound 0.08 µM); 0.176 in assay [1] (first compound 0.253 µM); 0.196 in assay [1] (first compound 0.8 µM); 0.208 in assay [1] (first compound 2.53 µM). Also, the relative viability was 0.181 in assay [1] (first compound 8 µM); 0.501 in assay [2] (first compound 0.08 µM); 0.49 in assay [2] (first compound 0.253 µM); 0.474 in assay [2] (first compound 0.8 µM); 0.489 in assay [2] (first compound 2.53 µM); 0.437 in assay [2] (first compound 8 µM).

Turning to NCI-H1666, the relative viability with AT-7519 + Foretinib (first compound 0.01 µM) was determined as 0.839; in the assay with AT-7519 + Foretinib (first compound 0.03162 µM) it was 0.77; with AT-7519 + Foretinib (first compound 0.3162 µM), 0.927; with AT-7519 + Foretinib (first compound 1 µM) it was 0.647; in the assay with AT-7519 + Crizotinib (first compound 0.01 µM) it was 0.902; with AT-7519 + Crizotinib (first compound 0.03162 µM), 0.972. Besides, the relative viability with AT-7519 + Crizotinib (first compound 0.3162 µM) worked out at 0.726; with AT-7519 + Crizotinib (first compound 1 µM), 0.604; in assay [1] (first compound 0.08 µM) it was 0.863; in assay [1] (first compound 0.253 µM), 0.754; in assay [1] (first compound 0.8 µM), 0.762; in assay [1] (first compound 2.53 µM) it was 0.745. Moreover, the relative viability in assay [1] (first compound 8 µM) came to 0.712; in assay [2] (first compound 0.08 µM), 0.868; in assay [2] (first compound 0.253 µM), 0.798; in assay [2] (first compound 0.8 µM), 0.787; in assay [2] (first compound 2.53 µM), 0.802; in assay [2] (first compound 8 µM) it was 0.771.

For NCI-H1703, the relative viability with AT-7519 + Foretinib (first compound 0.01 µM) came to 0.335; with AT-7519 + Foretinib (first compound 0.03162 µM), 0.317; with AT-7519 + Foretinib (first compound 0.3162 µM), 0.353; in the assay with AT-7519 + Foretinib (first compound 1 µM), 0.331; with AT-7519 + Crizotinib (first compound 0.01 µM) it was 0.585; in the assay with AT-7519 + Crizotinib (first compound 0.03162 µM), 0.59. The relative viability with AT-7519 + Crizotinib (first compound 0.3162 µM) was found to be 0.508; in the assay with AT-7519 + Crizotinib (first compound 1 µM), 0.0921; in assay [1] (first compound 0.08 µM) it was 0.3; in assay [1] (first compound 0.8 µM), 0.339; in assay [1] (first compound 2.53 µM), 0.475; in assay [1] (first compound 8 µM), 0.41. Also, the relative viability in assay [2] (first compound 0.08 µM) stood at 0.147; in assay [2] (first compound 0.253 µM), 0.163; in assay [2] (first compound 0.8 µM) it was 0.13; in assay [2] (first compound 8 µM) it was 0.16.

As for NCI-H1734, the relative viability in the assay with AT-7519 + Foretinib (first compound 0.01 µM) was 0.897; in the assay with AT-7519 + Foretinib (first compound 0.03162 µM), 0.809; in the assay with AT-7519 + Foretinib (first compound 0.3162 µM), 0.718; with AT-7519 + Foretinib (first compound 1 µM) it was 0.429; with AT-7519 + Crizotinib (first compound 0.01 µM), 0.662; with AT-7519 + Crizotinib (first compound 0.03162 µM) it was 0.724. For the same cell line, the relative viability in the assay with AT-7519 + Crizotinib (first compound 0.3162 µM) was found to be 0.544; in the assay with AT-7519 + Crizotinib (first compound 1 µM), 0.305; in assay [1] (first compound 0.08 µM), 0.609; in assay [1] (first compound 0.253 µM), 0.588; in assay [1] (first compound 0.8 µM) it was 0.697; in assay [1] (first compound 2.53 µM) it was 0.642. Besides, the relative viability in assay [1] (first compound 8 µM) is 0.624; in assay [2] (first compound 0.08 µM) it was 0.633; in assay [2] (first compound 0.253 µM) it was 0.558; in assay [2] (first compound 0.8 µM), 0.566; in assay [2] (first compound 2.53 µM), 0.527; in assay [2] (first compound 8 µM) it was 0.566.
